The source of these data is patent publication US9566347B2, “Peptides and methods using same” (The Trustees of the University of Pennsylvania, priority 2011, dated 2017).

In one data set the target is soluble hSIRP-alpha (Homo sapiens, UniProt P78324). Nature of the data set: Binding of polypeptide-coated beads to soluble hSIRP-alpha by flow cytometry. An excerpt: FIG. 4 illustrates binding and phagocytosis inhibition of peptides in relation to human-SIRP-alpha. Affinity of polypeptides coated beads binding to soluble hSIRP-alpha based on flow cytometry. Saturation binding fit gave the indicated dissociation constant, Kd.
(§1) Synthesis of the three designs and Scrambled-peptides with or without biotin attached via either an aminohexanoic acid linker (C6) or a PEG linker, enabled functional testing of binding to soluble hSIRP-alpha as well as inhibition of nanobead phagocytosis. […] The 10-aa FG-hairpin was synthesized without attachment of biotin for use as a soluble inhibitor of hSIRP-alpha binding to polypeptide beads. […] While conformational constraints the minimal FG-hairpin combined with the likely lack of a stable structure underscores the utility of at least some backbone flexibility.
A general note: A flow cytometer gives signals particle by particle.

The subject of a further data set is THP-1 cells. Kind of data set: Phagocytosis assay of peptide-coated opsonized nanobeads in THP-1 cell line. The conditions noted are these: opsonized beads. It is filed as cell-based. Here is the method: FIG. 3A illustrates a two color experiment in which nanoparticles (or cells) are mixed and injected into the same mouse after labeling with or without the peptide with distinct fluorescent red dye (PKH26) or far-red (DiD). 50 μl of blood was periodically sampled from the eyes, and flow cytometry analysis of the decay in nanoparticle (or cell) numbers was used to calculate the time-dependent ‘persistence ratio’ in each mouse. Colors were labeled as 1 and 2. FIG. 3B is a graph illustrating an experiment where 160 nm polystyrene beads coated with streptavidin were bound to biotinylated versions of synthetic FG-peptide, or else negative controls of either scrambled peptide or PEG. Beads were opsonized with anti-streptavidin and then injected. n=6 mice. FIG. 3C is a graph illustrating the inverse correlation between the in vivo ratio of beads with or without peptide at 35 min and the inhibition of phagocytosis in vitro at 45 min for 160 nm beads. FIG. 3D is a graph illustrating macrophage SIRPa1 tyrosine phosphorylation upon contact with FG-peptide bound to opsonized beads and phagocytosed by THP-1 cells. From cell lysates, SIRP-alpha was immunoprecipitated and immunoblotted for quantitation of phosphotyrosine per total SIRP-alpha (n=3). Avg.±SEM for all results.
FIG. 4 illustrates binding and phagocytosis inhibition of peptides in relation to human-SIRP-alpha. […]

Data set [1] can be described thus: Two-color persistence of opsonized nanobeads in circulation of NSG mice. It counts as in vivo. Conditions: 160 nm opsonized streptavidin polystyrene beads.
Description: FIG. 3A illustrates a two color experiment in which nanoparticles (or cells) are mixed and injected into the same mouse after labeling with or without the peptide with distinct fluorescent red dye (PKH26) or far-red (DiD). 50 μl of blood was periodically sampled from the eyes, and flow cytometry analysis of the decay in nanoparticle (or cell) numbers was used to calculate the time-dependent ‘persistence ratio’ in each mouse. Colors were labeled as 1 and 2. FIG. 3B is a graph illustrating an experiment where 160 nm polystyrene beads coated with streptavidin were bound to biotinylated versions of synthetic FG-peptide, or else negative controls of either scrambled peptide or PEG. Beads were opsonized with anti-streptavidin and then injected. n=6 mice. […] Avg.±SEM for all results.
A further data set has as its system spleen macrophages. Conditions: NSG mice, near-infrared particles.
Another data set addresses hSIRP-alpha (Homo sapiens, UniProt P78324). Nature of the data set: Soluble peptide inhibition of hSIRP-alpha binding to polypeptide beads.
Description: as §1

Positions of bridges follow the written chain, without caps; N, C: chain ends. Residues, ends and D or L forms follow the SMILES beside them. No end group written: not given here.

By Kd is commonly meant the constant that tells how readily two partners part at equilibrium. For orientation: Ki means a dissociation constant, usually derived from enzyme kinetics or from competition with a known ligand. Read a high Ki as a looser hold on the target.

Chain of soluble hSIRP-alpha (P78324 31-373 limits assumed): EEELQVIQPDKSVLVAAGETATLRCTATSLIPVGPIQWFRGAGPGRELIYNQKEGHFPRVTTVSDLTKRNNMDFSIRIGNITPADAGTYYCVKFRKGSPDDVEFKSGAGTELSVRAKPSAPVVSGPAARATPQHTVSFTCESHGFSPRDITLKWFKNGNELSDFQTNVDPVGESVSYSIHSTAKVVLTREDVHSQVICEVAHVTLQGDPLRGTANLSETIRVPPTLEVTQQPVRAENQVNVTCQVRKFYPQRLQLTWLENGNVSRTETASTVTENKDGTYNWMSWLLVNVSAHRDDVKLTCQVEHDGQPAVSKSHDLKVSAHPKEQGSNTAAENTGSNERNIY
Chain of hSIRP-alpha (P78324 31-373 limits assumed): as above
Description for spleen macrophages: To assess whether the particles had been taken up by spleen macrophages in NSG mice, tissue sections were immunostained for macrophages and imaged by fluorescence microscopy.

For the compound “CEVTELTREGEC (disulfide 1-12 (inferred)) [FG-SS-peptide, 12-aa peptide with Cys substitution intended to disulfide-stabilize the β-hairpin]”, the “affinity / binding to hSIRP-alpha (in words)” value in the data set with soluble hSIRP-alpha (peptide-coated beads, soluble hSIRP-alpha) is “no significant affinity”. In addition, the “inhibition of nanobead phagocytosis” value in the data set on THP-1 cells is given as “no statistically significant inhibition of phagocytosis”.
Consider GNYTCEVTELTREGETIIELK [FG-peptide], for which, in data set [1], the circulation of nanoparticles result was “prolong the circulation of nanoparticles”. The Kd in the data set with soluble hSIRP-alpha (saturation binding fit, biotinylated peptide on streptavidin beads, C6 or PEG linker, read-out: affinity for SIRP-alpha (Kd)) was 110 to 160 nM. In addition, the “particle uptake, whole organ imaging” value in the data set with spleen macrophages was “reducing but not eliminating uptake”.
The compound `CC(C)C[C@H](NC(=O)[C@H](CCC(=O)O)NC(=O)[C@@H](NC(=O)[C@@H](NC(=O)[C@@H](N)CCC(=O)O)C(C)C)[C@@H](C)O)C(=O)N[C@H](C(=O)N[C@@H](CCCNC(=N)N)C(=O)N[C@@H](CCC(=O)O)C(=O)NCC(=O)N[C@@H](CCC(=O)O)C(=O)O)[C@@H](C)O` [FG-hairpin, EVTELTREGE] (H-EVTELTREGE-OH; N-terminus and C-terminus assumed) showed an inhibition constant (Ki) at hSIRP-alpha of 100 to 200 nM.
